Columns and labels:
rSERT [1] = target: T1, rSERT (Rattus norvegicus, UniProt P31652); assay: saturation uptake, adherent HEK […] cells; type: cell-based; conditions: cell line 3; labelled compound, 200 nM [3H]-5-HT diluted with unlabelled; KHB pH 7.3, room temperature, 1 min; read-out: Km ± SD
T1 construct: gene Slc6a4; full-length, stably expressed in HEK 293 cells (Vienna, 'cell line 3')

rSERT [2] = target: T1, rSERT; assay: [3H]-CFT saturation binding, adherent HEK […] cells; type: cell-based; conditions: read-out: Kd ± SD
hSERT = target: T2, hSERT (Homo sapiens, UniProt P31645); assay: [3H]-CFT saturation binding, adherent HEK […] cells; type: cell-based; conditions: read-out: Kd ± SD
T2 construct: gene SLC6A4; full-length, stably expressed in HEK 293 cells (Basel, 'cell line 2')
T2 sequence (P31645 whole entry): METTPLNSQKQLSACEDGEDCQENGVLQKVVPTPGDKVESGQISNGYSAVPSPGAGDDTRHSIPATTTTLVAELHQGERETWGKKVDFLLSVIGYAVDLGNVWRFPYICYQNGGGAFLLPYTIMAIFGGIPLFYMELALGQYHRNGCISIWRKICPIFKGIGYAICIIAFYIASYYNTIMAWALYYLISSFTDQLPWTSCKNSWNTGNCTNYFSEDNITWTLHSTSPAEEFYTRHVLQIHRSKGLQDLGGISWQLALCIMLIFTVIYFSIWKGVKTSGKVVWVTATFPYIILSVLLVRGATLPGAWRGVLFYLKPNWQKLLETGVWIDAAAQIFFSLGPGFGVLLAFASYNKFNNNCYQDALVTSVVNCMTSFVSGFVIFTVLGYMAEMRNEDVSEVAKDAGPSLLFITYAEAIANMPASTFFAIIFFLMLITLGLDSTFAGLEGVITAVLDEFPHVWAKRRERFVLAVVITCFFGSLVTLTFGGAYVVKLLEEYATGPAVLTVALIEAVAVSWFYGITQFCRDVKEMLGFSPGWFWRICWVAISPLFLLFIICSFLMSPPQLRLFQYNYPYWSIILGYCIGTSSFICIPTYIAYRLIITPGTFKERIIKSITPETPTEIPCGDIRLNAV

hNET = target: T3, hNET (Homo sapiens, UniProt P23975); assay: [3H]-CFT saturation binding, adherent HEK […] cells; type: cell-based; conditions: read-out: Kd ± SD
T3 construct: gene SLC6A2; full-length, stably expressed in HEK 293 cells (Basel, 'cell line 2')
T3 sequence (P23975 whole entry): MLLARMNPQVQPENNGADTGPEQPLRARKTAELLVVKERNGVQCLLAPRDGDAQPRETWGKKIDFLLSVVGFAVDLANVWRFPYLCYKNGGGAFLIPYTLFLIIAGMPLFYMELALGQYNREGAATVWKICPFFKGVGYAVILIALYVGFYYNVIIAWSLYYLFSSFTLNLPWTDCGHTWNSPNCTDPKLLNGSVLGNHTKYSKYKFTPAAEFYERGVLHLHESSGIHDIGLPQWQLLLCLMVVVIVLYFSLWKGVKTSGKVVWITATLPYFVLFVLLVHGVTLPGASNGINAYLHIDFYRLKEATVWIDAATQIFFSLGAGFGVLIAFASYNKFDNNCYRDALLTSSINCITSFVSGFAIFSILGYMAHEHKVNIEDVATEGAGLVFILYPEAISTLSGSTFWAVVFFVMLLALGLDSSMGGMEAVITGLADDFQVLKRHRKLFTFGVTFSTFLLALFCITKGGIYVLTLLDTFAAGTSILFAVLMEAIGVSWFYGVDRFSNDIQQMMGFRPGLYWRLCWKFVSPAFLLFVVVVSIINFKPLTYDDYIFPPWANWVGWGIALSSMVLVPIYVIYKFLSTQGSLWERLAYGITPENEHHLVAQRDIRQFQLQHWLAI

rNET = target: T4, rNET (Rattus norvegicus, UniProt Q63380); assay: [3H]-CFT saturation binding, adherent HEK […] cells; type: cell-based; conditions: read-out: Kd ± SD
T4 construct: gene Slc6a2; full-length, stably expressed in HEK 293 cells (Vienna, 'cell line 3')
T4 sequence (Q63380 1-617): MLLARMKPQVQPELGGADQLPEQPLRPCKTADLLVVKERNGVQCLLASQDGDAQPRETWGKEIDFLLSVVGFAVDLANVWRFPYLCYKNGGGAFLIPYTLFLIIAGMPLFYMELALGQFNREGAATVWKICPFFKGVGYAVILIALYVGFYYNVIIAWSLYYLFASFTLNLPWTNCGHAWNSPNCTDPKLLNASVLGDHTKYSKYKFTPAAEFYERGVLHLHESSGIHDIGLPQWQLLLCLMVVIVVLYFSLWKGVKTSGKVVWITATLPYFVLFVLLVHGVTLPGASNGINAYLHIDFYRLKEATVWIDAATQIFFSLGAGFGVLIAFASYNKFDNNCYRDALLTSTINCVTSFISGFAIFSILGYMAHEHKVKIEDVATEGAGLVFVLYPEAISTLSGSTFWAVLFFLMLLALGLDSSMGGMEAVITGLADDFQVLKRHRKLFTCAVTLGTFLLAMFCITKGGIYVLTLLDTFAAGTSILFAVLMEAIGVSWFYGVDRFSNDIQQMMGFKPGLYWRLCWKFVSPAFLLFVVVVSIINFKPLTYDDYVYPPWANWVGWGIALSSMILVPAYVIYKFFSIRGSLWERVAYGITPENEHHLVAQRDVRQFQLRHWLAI

NCCc1c[nH]c2ccc(O)cc12 = system: T5, NCCc1c[nH]c2ccc(O)cc12; assay: cells, lysate or membranes; type: cell-based, Homo sapiens; conditions: cell line 2, labelled compound, 200 nM [3H]-5-HT diluted with unlabelled, KHB pH 7.3, room temperature, 1 min
T5 construct: full-length, stably expressed in HEK 293 cells (Basel, 'cell line 2')

[3] = substrate: NCCc1ccc(O)c(O)c1; assay: cells, lysate or membranes; conditions: cell line 2, labelled compound, 200 nM [3H]-dopamine diluted with unlabelled, KHB pH 7.3, room temperature, 1 min
[4] = substrate: NCCc1ccc(O)c(O)c1; assay: cells, lysate or membranes; type: cell-based, Rattus norvegicus; conditions: cell line 3, labelled compound, 200 nM [3H]-dopamine diluted with unlabelled, KHB pH 7.3, room temperature, 1 min

T1 sequence (P31652 whole entry): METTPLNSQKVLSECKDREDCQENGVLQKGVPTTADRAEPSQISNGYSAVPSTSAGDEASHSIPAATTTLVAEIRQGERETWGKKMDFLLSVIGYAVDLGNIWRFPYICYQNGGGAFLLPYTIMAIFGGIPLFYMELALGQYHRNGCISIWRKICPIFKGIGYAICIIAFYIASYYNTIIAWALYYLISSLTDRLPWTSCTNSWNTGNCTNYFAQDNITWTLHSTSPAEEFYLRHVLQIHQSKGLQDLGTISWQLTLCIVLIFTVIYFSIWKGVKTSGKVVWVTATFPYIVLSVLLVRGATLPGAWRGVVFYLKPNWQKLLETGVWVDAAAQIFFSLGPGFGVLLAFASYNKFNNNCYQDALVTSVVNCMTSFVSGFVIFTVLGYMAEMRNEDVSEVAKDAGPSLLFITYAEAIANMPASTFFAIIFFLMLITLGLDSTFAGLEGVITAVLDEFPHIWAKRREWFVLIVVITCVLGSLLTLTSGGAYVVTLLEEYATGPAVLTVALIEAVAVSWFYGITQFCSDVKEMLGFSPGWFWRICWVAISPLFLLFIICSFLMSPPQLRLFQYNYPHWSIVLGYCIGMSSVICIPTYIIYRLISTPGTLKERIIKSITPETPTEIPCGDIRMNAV

## NCCc1c[nH]c2ccc(O)cc12 [5-HT]
rSERT [1]
  Km: 3.4 ± 1.5 µM

## COC(=O)[C@H]1[C@@H](c2ccc(F)cc2)C[C@@H]2CC[C@H]1N2C [CFT, 2-β-carbomethoxy-3-β-(4-fluorophenyl)tropane]
rSERT [2]
  Kd: 1130 ± 70 nM
hSERT
  Kd: 1200 ± 400 nM
hNET
  Kd: 70 ± 20 nM
rNET
  Kd: 130 ± 70 nM

## hSERT (Homo sapiens)
NCCc1c[nH]c2ccc(O)cc12
  Km: 4.1 ± 1.0 µM

B1: hDAT (Homo sapiens) (protein)
chain: MSKSKCSVGLMSSVVAPAKEPNAVGPKEVELILVKEQNGVQLTSSTLTNPRQSPVEAQDRETWGKKIDFLLSVIGFAVDLANVWRFPYLCYKNGGGAFLVPYLLFMVIAGMPLFYMELALGQFNREGAAGVWKICPILKGVGFTVILISLYVGFFYNVIIAWALHYLFSSFTTELPWIHCNNSWNSPNCSDAHPGDSSGDSSGLNDTFGTTPAAEYFERGVLHLHQSHGIDDLGPPRWQLTACLVLVIVLLYFSLWKGVKTSGKVVWITATMPYVVLTALLLRGVTLPGAIDGIRAYLSVDFYRLCEASVWIDAATQVCFSLGVGFGVLIAFSSYNKFTNNCYRDAIVTTSINSLTSFSSGFVVFSFLGYMAQKHSVPIGDVAKDGPGLIFIIYPEAIATLPLSSAWAVVFFIMLLTLGIDSAMGGMESVITGLIDEFQLLHRHRELFTLFIVLATFLLSLFCVTNGGIYVFTLLDHFAAGTSILFGVLIEAIGVAWFYGVGQFSDDIQQMTGQRPSLYWRLCWKLVSPCFLLFVVVVSIVTFRPPHYGAYIFPDWANALGWVIATSSMAMVPIYAAYKFCSLPGSFREKLAYAIAPEKDRELVDRGEVRQFTLRHWLKV
[3]
  Km: 5.5 ± 0.8 µM

B2: rDAT (Rattus norvegicus) (protein)
chain: MSKSKCSVGPMSSVVAPAKESNAVGPREVELILVKEQNGVQLTNSTLINPPQTPVEAQERETWSKKIDFLLSVIGFAVDLANVWRFPYLCYKNGGGAFLVPYLLFMVIAGMPLFYMELALGQFNREGAAGVWKICPVLKGVGFTVILISFYVGFFYNVIIAWALHYFFSSFTMDLPWIHCNNTWNSPNCSDAHASNSSDGLGLNDTFGTTPAAEYFERGVLHLHQSRGIDDLGPPRWQLTACLVLVIVLLYFSLWKGVKTSGKVVWITATMPYVVLTALLLRGVTLPGAMDGIRAYLSVDFYRLCEASVWIDAATQVCFSLGVGFGVLIAFSSYNKFTNNCYRDAIITTSINSLTSFSSGFVVFSFLGYMAQKHNVPIRDVATDGPGLIFIIYPEAIATLPLSSAWAAVFFLMLLTLGIDSAMGGMESVITGLVDEFQLLHRHRELFTLGIVLATFLLSLFCVTNGGIYVFTLLDHFAAGTSILFGVLIEAIGVAWFYGVQQFSDDIKQMTGQRPNLYWRLCWKLVSPCFLLYVVVVSIVTFRPPHYGAYIFPDWANALGWIIATSSMAMVPIYATYKFCSLPGSFREKLAYAITPEKDHQLVDRGEVRQFTLRHWLLL
notes: full-length, stably expressed in HEK 293 cells (Vienna, 'cell line 3')
[4]
  Km: 8.8 ± 3.9 µM
